What was measured:
[1] = tested on: potatoes; experiment: Yield increase test of potatoes (field); format: in vivo, potato; conditions: amount 7000 g active ingredient/mu, base fertilizer
Protocol: (§1) (1) Yield increase and disease control test of potatoes with fungicidal fertilizer composition of the present invention. This test was conducted in 2017 in Anding District, Dingxi City, Gansu Province. This area is a typical semi-arid rain-fed agricultural area. The soil type is loessial soil, with deep soil layers and uniform soil fertility. The previous crop is rape. The fertilizer of the present invention was totally applied as a base fertilizer at a time. […] Ridging after flat planting in wide and narrow rows was adopted. The wide row spacing was 60 cm, the narrow row spacing was 30 cm, the plant spacing was 30 cm, the sowing depth was 15 cm, and the plant density was 58,000 plants·hm^−2. Other field management was the same as that in large area of field. The number of large- and medium-sized potatoes ([…]) per plant was randomly determined, and the relative increase rate of large- and medium-sized potatoes was determined. The yield per mu and the relative increase rate of yield were determined. The crude starch content and increase rate of crude starch content were determined. The control effect on root rot of potatoes was also determined.

[2] = tested on: root rot of potatoes; experiment: Disease control test of potatoes (field), root rot; format: in vivo, potato; conditions: amount 7000 g active ingredient/mu
Protocol: as §1

[3] = tested on: soybean; experiment: Yield increase test of soybean; format: in vivo; conditions: 4000 g effective ingredient per mu
Protocol: (§2) Fertilization method: The fertilizer was co-applied with other fertilizers. The yield, quality and control effect on disease on soybean were determined.

[4] = tested on: root rot, a soil-borne disease of soybeans; experiment: Disease control test of soybean, root rot; format: in vivo; conditions: 4000 g effective ingredient per mu
Protocol: as §2

[5] = tested on: Chinese wolfberry; experiment: Yield increase and quality test of Chinese wolfberry; format: in vivo, Chinese wolfberry "Ningqi No. 7"; conditions: 1.2 kg active ingredient per mu
Protocol: The test was carried out in a Chinese wolfberry planting test plot in Koluke Town, Delingha City, Qinghai Province. Chinese wolfberry plants were all three-year-old seedlings of variety “Ningqi No. 7” at a density of 270 plants/667 m^2. This experiment was designed such that different plots were arranged in order. […]. Fertilization method: It was applied together with other base fertilizers, by laying the fertilizer at the bottom of the planting pit, where the depth of the trench was 70 cm, the diameter of the pit was 80 cm, and the soil was mixed in and applied at the bottom when applying fertilizer. The yield, quality and control effect on disease on fresh Chinese wolfberry fruit were determined.

[6] = tested on: Disease (black fruit); experiment: Disease control test of Chinese wolfberry, black fruit; format: in vivo, Chinese wolfberry "Ningqi No. 7"; conditions: 1.2 kg active ingredient per mu
Protocol: The test was carried out in a Chinese wolfberry planting test plot in Koluke Town, Delingha City, Qinghai Province. Chinese wolfberry plants were all three-year-old seedlings of variety “Ningqi No. 7” at a density of 270 plants/667 m^2. This experiment was designed such that different plots were arranged in order. […] Fertilization method: It was applied together with other base fertilizers, by laying the fertilizer at the bottom of the planting pit, where the depth of the trench was 70 cm, the diameter of the pit was 80 cm, and the soil was mixed in and applied at the bottom when applying fertilizer. The yield, quality and control effect on disease on fresh Chinese wolfberry fruit were determined.

[7] = tested on: peanut; experiment: Yield increase and quality test of peanut; format: in vivo; conditions: 800 g per mu, sprayed three times during flowering and fruiting period
Protocol: (§3) […]. Fertilization method: The fertilizer was applied three times by spraying during the flowering and fruiting period. The yield, quality and control effect on disease on peanut were determined.

[8] = tested on: stem rot of peanut; experiment: Disease control test of peanut, stem rot; format: in vivo; conditions: 800 g per mu
Protocol: as §3

[9] = tested on: pepper; experiment: Yield increase and quality test of pepper; format: in vivo; conditions: 400 g per mu, sprayed during the seedling stage
Protocol: (§4) This fertilizer was applied on the basis of conventional fertilization in each treatment area. Fertilization method: The fertilizer was applied by spraying during the seedling stage of pepper. The yield, quality and control effect on disease on pepper were determined.

[10] = tested on: Disease (blight); experiment: Disease control test of pepper, blight; format: in vivo; conditions: 400 g per mu
Protocol: as §4

[11] = tested on: tomato; experiment: Yield increase and quality test of tomato; format: in vivo; conditions: 600 g per mu, sprayed during the seedling stage
Protocol: […]. This fertilizer was applied on the basis of conventional fertilization in each treatment area. Fertilization method: The fertilizer was applied by spraying during the seedling stage of tomato. The yield, quality and control effect on disease on tomato were determined.

[12] = tested on: Disease (rot); experiment: Disease control test of tomato, rot; format: in vivo; conditions: 600 g per mu
Protocol: This fertilizer was applied on the basis of conventional fertilization in each treatment area. Fertilization method: The fertilizer was applied by spraying during the seedling stage of tomato. The yield, quality and control effect on disease on tomato were determined.

Substance: Potassium phosphite
- Crude starch content [1]: 16.8%
- Fresh weight of large- and medium-sized potatoes [1]: 518.8 g/plant
- Increase rate of crude starch content [1]: 6.3%
- Increase rate of large- and medium-sized potatoes [1]: 14.8%
- Increase rate of yield [1]: 12.4%
- Yield [1]: 1446 kg/mu
- Control effect ([2]; 10 days after application): 57.59%
- Disease index of root rot ([2]; 10 days after application): 11.56
- Control effect ([2]; 30 days after application): 32.47%
- Disease index of root rot ([2]; 30 days after application): 26.19
- Branches [3]: 18.5 count
- Increase rate (branches) [3]: 6.8%
- Increase rate (weight per 100 grains) [3]: 7.1%
- Increase rate (yield) [3]: 11.4%
- Weight per 100 grains [3]: 26.50 g
- Yield (667 M^2) ([3]; per 667 M^2): 196.7
- Control effect ([4]; 12 days after application): 75.42%
- Disease index of root rot ([4]; 12 days after application): 4.73
- Control effect ([4]; 35 days after application): 36.78%
- Disease index of root rot ([4]; 35 days after application): 19.93
- Quality: Polysaccharide [5]: 8.63%
- Quality: Total amino acid content [5]: 7.41%
- Yield of fresh Chinese wolfberry fruit: Weight per 100 fruits [5]: 126.8 g
- Yield of fresh Chinese wolfberry fruit: Yield [5]: 2703.5 kg/mu
- Disease (black fruit): Control effect ([6]; 10 days after application): 66.51%
- Disease (black fruit): Disease index ([6]; 10 days after application): 5.13
- Disease (black fruit): Control effect ([6]; 30 days after application): 45.24%
- Disease (black fruit): Disease index ([6]; 30 days after application): 15.67
- Quality: Linoleic acid [7]: 44.61%
- Quality: Protein [7]: 23.08%
- Yield [7]: 335.7 kg/mu
- Yield: Seed yield [7]: 70.3%
- Yield: Weight per 100 fruits [7]: 122.3 g
- Disease (Stem rot): Control effect ([8]; 10 days after application): 78.64%
- Disease (Stem rot): Disease index ([8]; 10 days after application): 3.28
- Disease (Stem rot): Control effect ([8]; 30 days after application): 39.36%
- Disease (Stem rot): Disease index ([8]; 30 days after application): 9.31
- Quality: Vitamin C [9]: 24.4 mg/100 g
- Yield: Total yield [9]: 3462 kg/mu
- Yield: Weight of single fruit [9]: 51.8 g
- Disease (blight): Control effect ([10]; 10 days after application): 71.36%
- Disease (blight): Disease index ([10]; 10 days after application): 3.00
- Disease (blight): Control effect ([10]; 42 days after application): 31.52%
- Disease (blight): Disease index ([10]; 42 days after application): 12.43
- Quality: Amino acid [11]: 695.31 mg/100 kg
- Quality: Vitamin C [11]: 15.69 mg/100 g
- Yield: Total yield [11]: 3626 kg/mu
- Yield: Weight of single fruit [11]: 22.6 g
- Disease (rot): Control effect ([12]; 12 days after application): 62.42%
- Disease (rot): Disease index ([12]; 12 days after application): 5.95
- Disease (rot): Control effect ([12]; 45 days after application): 34.52%
- Disease (rot): Disease index ([12]; 45 days after application): 16.16
